Data on one molecule can be found in US20250129113A1, “NEW GLYCOSIDE COMPOUND AND PREPARATION PROCESS THEREOF” (SunIn Biotech Co., Ltd., priority 2023, published 2025).

The subject of one assay is HaCaT cells. Description: Cell proliferation assay (CCK-8), HaCaT cells. The assay is classed as cell-based, human. The following applies: 25 mM glucose, 48 hours, vs control group. As to the method: (§1) Human Foreskin Fibroblast, Hs68 cells and human keratinocytes, HaCaT cells were cultured in Dulbecco's Modified Eagle Medium (DMEM) added with glucose and 10% fetal calf serum, and then the cells were put in a humidified incubator with an air of 5% carbon dioxide and 95% oxygen. The medium was changed every two days. The subculture was performed, and then treated with 0.25% trypsin (TRYPSIN-EDTA) mixture. Finally, the cells were collected and diluted at a ratio of 1:5 for re-culture. The cells used in the efficacy test had passage numbers ranging from 12 to 40.
HaCaT cells at the number of 5×10^3 were cultured Culture in DMEM culture medium for 48 hours. The cell growth and survival status were analyzed with the CCK-8 reagent kit (DOJINDO MOLECULAR TECHNOLOGIES, KUMAMOTO, JAPAN). 10 μL CCK-8 solution was added to each cell culture and the cells were incubated at 37° C. for one hour, and then the cells were measured by the spectrophotometer MICROPLATE READER (THERMO LABSYSTEMS MULTISKAN RC) at 450 nm absorption, and the experimental results were analyzed by a comparison with the control group.

For a further assay, the system named is Hs68 cells. Nature of the assay: Cell proliferation assay (CCK-8), Hs68 cells. The class given is cell-based, human. The conditions noted are these: 25 mM glucose, 24 hours, vs control group. As to the method:
as §1
The Hs68 cells were cultured in DMEM culture medium for 24 hours. The cell growth and survival status were analyzed with the CCK-8 reagent kit (DOJINDO MOLECULAR TECHNOLOGIES, KUMAMOTO, JAPAN). 10 μL CCK-8 solution to each cell culture was added and the cell culture was incubated at 37° C. for one hour, and then the cells were measured by the spectrophotometer MICROPLATE READER (THERMO LABSYSTEMS MULTISKAN RC) at 450 nm absorption, and the experimental results were analyzed by a comparison with the control group.

Assay [1] deals with IL-6 gene expression in THP1 cells differentiated into M1-type macrophages. Description: Real-time PCR inflammatory gene expression assay, IL-6. The assay is classed as cell-based, human. The conditions noted are these: 16 μM; THP1 differentiation into M1-type macrophages (LPS, IFN-γ); 25 mM glucose. As to the method: (§2) Human acute monocytic leukemia, THP1 cells were cultured in Roswell Park Memorial Institute (RPMI) 1640 medium added with 10% fetal calf serum, and then the cells were put in a humidified incubator at 37° C., and with an air of 5% carbon dioxide and 95% oxygen.
(§3) THP1 cells were treated with 100 ng/ml of phorbol 12-myristate 13-acetate (PMA) for 24 hours to induce activation. The following day, the medium was replaced with RPMI 1640 (25 mM Glucose, 10% FBS) and incubated for another 24 hours. The cells were then differentiated into M1 phase macrophages by switching to RPMI 1640 medium containing LPS (10 pg/ml) and IFN-γ (20 ng/ml), and into M2 phase macrophages using RPMI 1640 medium containing IL-4 (20 ng/ml) and IL-13 (20 ng/ml). During the 48-hour differentiation process, the test drug Nusynside (16 μM) was added. After 24 hours of differentiation, mRNA from M1 and M2 phase macrophages was extracted using the PROTECH Kit, and reverse transcription of mRNA into cDNA was performed with the Protech MMLV Reverse Transcription Kit. Gene expression was subsequently observed. According to the POWERTRACK SYBR dye protocol, the cDNA was mixed, and gene expression was analyzed using the StepOnePlus Real-Time PCR Systems to examine inflammatory gene expression when THP1 cells were differentiated into M1 and M2 phase macrophages in the presence of Nusynside (16 μM).
In general terms: Quantitative PCR measures a nucleic acid by following its amplification.

Assay [2] deals with TNF-α gene expression in THP1 cells differentiated into M1-type macrophages. Description: Real-time PCR inflammatory gene expression assay, TNF-α. The class given is cell-based, human. The conditions noted are these: 16 μM; THP1 differentiation into M1-type macrophages (LPS, IFN-γ); 25 mM glucose. The protocol: as §2, §3
The subject of assay [3] is full-skin wound in BKS.Cg-Dock7m+/+ Leprdb/Jnarl male mice. Nature of the assay: Diabetic mice wound healing study. The assay is classed as in vivo. The following applies: Nusynside 0.23 mg, Day 17 after continuous administration, compared to Blank group. The protocol: BKS.Cg-Dock7m+/+ Leprdb/Jnarl male mice, an established diabetes model, were obtained from the National Applied Research Laboratories, Taiwan. The experiment was conducted when the mice were 6 to 7 weeks old. A full-skin wound of the same size with a diameter of about 6 mm was made on the left and right sides of each mouse's back.
Total 14 mice were randomly divided into 4 groups based on body weight: (i) Nusynside test group (administrated with Nusynside 0.23 mg) (n=4); (ii) Positive Control group (administrated with cream containing Centella Asiatica and Plectranthus amboinicus extract) (n=4); (iii) Vehicle Control group (administrated with ointment base) (n=3); (vi) Blank group (n=3). The animals underwent bilateral incisions and were housed individually in separate cages after the incisions, in the IVC housing system of the general SPF breeding area. Daily external cage observations were conducted by the animal caretakers. On the day of the incision and during follow-up photography, the body weight of the animals, wound appearance, and wound area were measured and recorded, except that the wound had healed resulting in it disable to be measured, the measurements were taken twice a week.

For the molecule `CC1OC(OC2C(O)C(OCCc3ccc(O)c(O)c3)OC(CO)C2OC(=O)CCc2ccc(O)c(O)c2)C(O)C(O)C1O` (centres unmarked) [Nusynside], the figures for the “promotion of cell proliferation of HaCaT cells” value in the assay with HaCaT cells (3.2 μM), in the assay on HaCaT cells (16 μM) and in the assay with HaCaT cells (32 μM) were 12%, 17% and 14%, respectively. The “promotion of cell proliferation of Hs68 cells” value was 9% in the assay with Hs68 cells (16 μM) and 12% with Hs68 cells (32 μM). Also, the “expression of IL-6 gene” value in assay [1] is reported as “significantly downregulated”. The “expression of TNF-α gene” value in assay [2] was “significantly downregulated”. Also, the wound healing rate result in assay [3] is reported as “significantly increased the wound healing rate”.
